Data reported in article PMC7504466, “In-Vitro and In-Silico Evaluations of Heterocyclic-Containing Diarylpentanoids as Bcl-2 Inhibitors Against LoVo Colorectal Cancer Cells” (Molecules, 2020).

Legend:
[1] = test system: caspase-9; assay: Western blot, cleaved caspase-9; type: cell-based, human; conditions: 5 µM, LoVo cells
Procedure: (§1) Lovo cells (1.5 × 10^4 cells/cm^2) were seeded in a T75 flask and incubated at 37 °C and 5% CO2 atmosphere overnight. The seeded cells were then treated with selected compounds at 5 µM of 2e for 24 h, 48 h, and 72 h. After treatment, the cells were harvested and lysed with phenylmethanesulfonyl fluoride (PMSF)-containing cell lysis buffer. The lysates were then centrifuged at 13,300× g for 15 min and the supernatant was collected. Protein concentrations of all samples were determined using a BCA assay kit (Thermo Scientific Inc., Waltham, MA, USA). Equal amounts of protein were electrophoresed in 12% and 20% SDS-polyacrylamide gel (SDS-PAGE), and electro-transferred onto a 0.22-μm polyvinyldene difluoride membrane. Each membrane was blocked with 5% (w/v) skim milk at room temperature for 1 h followed by overnight incubation with specific primary antibodies (1:1000) at 4 °C. Subsequently, the respective membrane was washed thrice with TBST (0.05% (v/v) of tween-20) followed by 1 h incubation with secondary antibody (1:10,000). Upon completion, the membrane was washed thrice with 1X Tris-Buffered Saline, 0.1% Tween® 20 Detergent (TBST) and the immune reactive bands were developed using SuperSignal West Dura Extended Duration Substrate (Thermo Scientific Inc., Waltham, MA, USA). […]

[2] = test system: LoVo cells; assay: Measurement of intracellular ROS levels (DCFH-DA, flow cytometry); type: cell-based, human; conditions: 5 µM
Procedure: LoVo cells (1 × 10^5 cells/well) were seeded into a 6-well plate and incubated at 37 °C and 5% CO2 atmosphere overnight. After incubation, the seeded cells were treated with 1 mL of 10 µM DCFDA in culturing media for 1 h. Upon completion, the cells were washed twice with PBS followed by treatments with 5 µM of selected compounds for 24, 48 and 72 h. Then, the treated cells were harvested, washed and re-suspended in PBS followed by flow-cytometric analysis at the FITC channel.

[3] = test system: cleaved caspase-7; assay: Western blot, cleaved caspase-7; type: cell-based, human; conditions: 5 µM, LoVo cells, after 24 h
Procedure: as §1

[4] = test system: caspase-8; assay: Western blot, caspase-8; type: cell-based, human; conditions: 5 µM, LoVo cells
Procedure: as §1

[5] = test system: Bcl-xL; assay: Western blot, Bcl-xL; type: cell-based, human; conditions: 5 µM, LoVo cells, up to 72 h
Procedure: as §1

[6] = test system: T84 cells; assay: MTT cytotoxicity assay, T84 cells; type: cell-based; conditions: Homo sapiens, 72 h post-treatment, read-out: IC50 (µM) KRAS T84
Procedure: (§2) The in-vitro cytotoxic activity of the synthesized compounds on seven human CRC cell lines including KRAS (T84, SW620, LoVo) and BRAF (HT29, NCI-H508, RKO and LS411N) mutated cells were determined by MTT assay as previously described. The IC50 values obtained are summarized in Table 2 in which 5-FU and normal human dermal fibroblasts (NHDF) were used as controls. Meanwhile, a heatmap (Figure 3) was also generated using GraphPad Prism v7.0 (GraphPad Software, La Jolla, CA, USA) to visualize the cytotoxic trends of synthesized compounds graphically.
(§3) A panel of KRAS (T84, SW620 and LoVo) and BRAF (HT29, NCI-H508, RKO and LS411N) mutated human CRC cell lines were grown in Dulbecco’s modified Eagle’s medium (DMEM) containing 10% fetal bovine serum (FBS) and 1% penicillin/streptomycin at 37 °C under 5% CO2 while NHDF cells were cultured in DMEM with 5% FBS under the same condition. The culture medium was replenished every two days until the cells reached 80–90% confluency for further usage. All cell lines (T84, ATCC®CCL-248™; SW620, ATCC®CCL-227™; LoVo, ATCC®CCL-229™; HT-29, ATCC®HTB-38; NCI-H508, ATCC®CCL-253™; RKO, ATCC®CRL-2577; LS411N, ATCC®CRL-2159; NHDF, ATCC® PCS-201-010™) were purchased from American Type culture Collections (ATCC, Manassas, VA, USA).
(§4) LoVo cells (1.5–5 × 10^3 cells/well) were seeded into a 96 well plate and incubated at 37 °C and 5% CO2 atmosphere for 24 h. On the following day, the cell media were replaced with 100 µL of test compounds at various concentration. The final concentration of DMSO in the well is 0.1%. After 72 h of incubation, culture medium was removed and 100 µL of MTT (thiazoyl blue tertrazolium bromide) solution (0.5 mg/mL in culture media) was added. The resultant plates were then further incubated at 37 °C for 4 h. Upon completion, the MTT solution was removed and the formazan salts formed were dissolved in 100 µL of DMSO. The absorbance was recorded with a microplate reader at 570 nm. The IC50 values of tested compounds were calculated from three independent experiments.

[7] = test system: NCI-H508 cells; assay: MTT cytotoxicity assay, NCI-H508 cells; type: cell-based; conditions: Homo sapiens, 72 h post-treatment, read-out: IC50 (µM) BRAF NCI-H508
Procedure: as §2, §3, §4

[8] = test system: cleaved PARP; assay: Western blot, cleaved PARP; type: cell-based, human; conditions: 5 µM, LoVo cells, after 24 h
Procedure: as §1

[9] = test system: SW620 cells; assay: MTT cytotoxicity assay, SW620 cells; type: cell-based; conditions: Homo sapiens, SW-620, 72 h post-treatment, read-out: IC50 (µM) KRAS SW620
Procedure: as §2, §3, §4

[10] = test system: Mcl-1; assay: Western blot, Mcl-1; type: cell-based, human; conditions: 5 µM, LoVo cells, up to 72 h
Procedure: as §1

[11] = test system: HT29 cells; assay: MTT cytotoxicity assay, HT29 cells; type: cell-based; conditions: Homo sapiens, HT-29, 72 h post-treatment, read-out: IC50 (µM) BRAF HT29
Procedure: as §2, §3, §4

With `O=C1C(=Cc2ccccc2Br)CSCC1=Cc1ccccc1Br` [Compound 2e, 3,5-Bis(2-bromobenzylidene)tetrahydro-4H-thiopyran-4-one] the caspase-9 cleavage [1] was “activate the cleavage of caspase-9”, the “cellular ROS level” value ([2]; 24 h) was “rapid increment in cellular ROS level” and the “cellular ROS level” value ([2]; 48 h and 72 h) was “secondary increment of cellular ROS”. The “cleaved caspase-7 level” value [3] was “increased”, the caspase-8 cleavage [4] was “unaffected” and the Bcl-xL expression [5] was “remained unaffected”. The IC50 [6] was 1.6 µM, the IC50 [7] was 1.1 µM and the “cleaved PARP level” value [8] was “increased”. For the same compound, the IC50 [9] was 1.4 µM, the Mcl-1 expression [10] was “remained unaffected” and the IC50 [11] was 2.1 µM.
